Data reported in patent US11079383B2, “Diagnosis and monitoring treatment of prostate cancer” (THE GENERAL HOSPITAL CORPORATION, priority 2012, dated 2021).
Entries after “also recorded” stand apart in the source; their conditions may differ.

Legend:
[1] = system: CTCs from patients with CRPC; experiment: AR signaling phenotypes in CTCs from CRPC patients before and after second line hormonal therapy (HBCTC-Chip); format: in vivo, human; conditions: for Effect of second line hormonal treatment on CTC numbers and AR phenotypes: CRPC patients, ketoconazole N=1, bicalutamide N=2, abiraterone acetate N=13
Experimental: (§1) Patients and Clinical Specimens Patients with metastatic prostate cancer receiving treatment at the Massachusetts General Hospital (MGH) were recruited according to an institutional review board (IRB) approved protocol. A total of 21 prostate cancer patients donated 10-20 mL of blood on one or more occasions for CTC analysis. A total of 21 male patients with no known diagnosis of cancer were recruited during routine visits to the MGH outpatient internal medicine clinic according to a separate IRB approved protocol. CTC capture using the ^HBCTC-Chip was performed as described (Stott S L, et al. Proc Natl Acad Sci USA 2010; 107: 18392-7), with anti-EpCAM mediated capture of cells, followed by combined staining with anti-PSA, anti-PSMA, and anti-CD45 antibodies (described in detail below).
(§2) HBCTC-Chip Blood Processing All specimens were collected into Vacutainer (Becton-Dickson) tubes containing the anticoagulant EDTA and were processed through the ^HBCTC-Chip within 6 hours of blood draw. Samples were run on the previously described microfluidic processing machine (Stott S L, et al. Proc Natl Acad Sci USA 2010; 107: 18392-7). Briefly, a 5 mL aliquot of blood was placed in an airtight conical tube on a rocker assembly, and 2-4 mL of blood were pneumatically driven through the chip at a flow rate of 1-1.5 mL/hour. Following processing, the ^HBCTC-Chip was flushed with 2.5 mL of PBS at 2.5 mL/hour to remove nonspecifically bound cells. Isolated CTCs were then subjected to immunofluorescence staining, as described below.
Immunofluorescence Staining and Automated Fluorescence Microscopy To establish and validate the immunofluorescence single cell AR signature, LNCaP cells were cultured in media containing 10% charcoal-stripped serum for 3 days followed by treatment with 1 nM R1881 or 10 μM bicalutamide for 24 hours. Once the assays were validated in cultured cells, they were applied to cells spiked into whole blood and isolated on the CTC-Chip, to healthy donor blood samples to establish the signal intensity threshold for detection, and ultimately on primary patient samples processed through the Chip. Cells captured on the ^HBCTC-chip were fixed with 4% formaldehyde and permeabilized with 1% NP-40 in PBS. Immunofluorescence staining was performed using a rabbit polyclonal anti-PSA antibody (DAKO), a mouse monoclonal IgG1 anti-PSMA antibody (J591; N. Bander), and a mouse monoclonal IgG2a anti-CD45 antibody (Abcam), followed by appropriately matched secondary antibodies conjugated with DyLight 649 (Jackson ImmunoResearch), Alexa Fluor 555 (Invitrogen), and Alexa Fluor 488 (Invitrogen). Nuclei were stained with DAPI. An automated upright fluorescence microscopy scanning system (BioView) fitted with a precision motorized stage and xenon arc lamp (Lumen 2000, Prior Scientific) was used to comprehensively image each CTC-chip under 10× magnification in seven z-planes. Due to inherent auto fluorescence of biological samples that can interfere with the specificity of stains in the green spectra, the negative control marker, CD45, was paired with the Alexa Fluor 488 secondary antibody. This choice reduced the sensitivity of the staining assay (potentially more false negatives), but lessened the risk of false positives through natural autofluorescence. Conversely, PSA, the highest affinity antibody tested (and subsequently strongest fluorescent signal) was placed in the Cy5 channel, where the quantum efficiency of traditional monochrome CCD sensors is reduced. To successfully achieve distinct, non-overlapping fluorescent signals in four colors while maximizing the fluorescent intensity output, modified Magnetron sputter-coated filter sets were selected for the Cy3 and Cy5 spectra (Chroma). Additional filter sets for the DAPI and FITC channel were used and exposure times were optimized. All samples were subsequently imaged at predetermined exposure times. […]

LNCaP cells = experiment: Multiparameter single cell immunofluorescence assay for AR signaling (PSA/PSMA) in LNCaP cells; format: cell-based, human; conditions: androgen-starved LNCaP cells (3 days 10% charcoal-stripped serum) treated with 1 nM R1881
From the text: To achieve multiparameter single cell analysis of AR activity, an automated fluorescence microscopy scanning platform was adapted to distinctly and specifically measure four fluorescent emission spectra simultaneously. Secondary fluorophores and optical band pass filters were selected to avoid “cross-talk” between the multiple fluorescent signals that are closely located on the electromagnetic spectrum, while maximizing signal intensity. The disclosed assay for quantitative measurement of signal intensity profiles for cells stained with antibodies against PSA and PSMA was developed using a model cell system (LNCaP). […]
(§3) Immunofluorescence Staining and Automated Fluorescence Microscopy To establish and validate the immunofluorescence single cell AR signature, LNCaP cells were cultured in media containing 10% charcoal-stripped serum for 3 days followed by treatment with 1 nM R1881 or 10 μM bicalutamide for 24 hours. […] An automated upright fluorescence microscopy scanning system (BioView) fitted with a precision motorized stage and xenon arc lamp (Lumen 2000, Prior Scientific) was used to comprehensively image each CTC-chip under 10× magnification in seven z-planes. Due to inherent auto fluorescence of biological samples that can interfere with the specificity of stains in the green spectra, the negative control marker, CD45, was paired with the Alexa Fluor 488 secondary antibody. […]

metastatic CRPC = conditions: men with metastatic CRPC who have previously received chemotherapy; cited from earlier work
[2] = system: CTCs from patients with castration-sensitive prostate cancer; experiment: AR signaling phenotypes in CTCs from patients with castration-sensitive metastatic prostate cancer before and after ADT (HBCTC-Chip); format: in vivo, human; conditions: for Change of CTC AR signaling phenotype after ADT: treatment-naive castration-sensitive metastatic prostate cancer patients with detectable CTCs
Experimental: as §1
as §2, with “Following processing, the ^HBCTC-Chip was flushed with 2.5 mL of PBS at 2.5 mL/hour to remove nonspecifically bound cells. Isolated CTCs were then subjected to immunofluorescence staining, as described below.” left out
as §3

For `CC(=O)N1CCN(c2ccc(OCC3COC(Cn4ccnc4)(c4ccc(Cl)cc4Cl)O3)cc2)CC1` (centres unmarked) [ketoconazole], the “Effect of second line hormonal treatment on CTC numbers and AR phenotypes” value [1] was “varying effects on CTC numbers and AR phenotypes”.
With `C[C@]1(O)CC[C@H]2[C@@H]3CCC4=CC(=O)CCC4=C3C=C[C@@]21C` [R1881] the “AR signaling phenotype (PSA/PSMA signal intensity profile) over time” value (LNCaP cells) was “time-dependent progression from an initial “AR-off” (PSA−/PSMA+) to an intermediate “AR-mixed” (PSA+/PSMA+) phenotype, and finally to an “AR-on” (PSA+/PSMA−) pattern”.
In the case of `CC(=O)O[C@H]1CC[C@@]2(C)C(=CC[C@@H]3[C@@H]2CC[C@]2(C)C(c4cccnc4)=CC[C@@H]32)C1` [abiraterone acetate], the “CRPC patients with a stable percentage of AR-on CTCs after therapy” value ([1]; 6 of 13 patients) is reported as 46%, the “Effect of second line hormonal treatment on CTC numbers and AR phenotypes” value [1] is reported as “varying effects on CTC numbers and AR phenotypes” and the “Change in proportion of PSA+/PSMA− AR-on CTCs in an individual CRPC patient” value ([1]; single patients, after initiation of therapy (FIG. 4A, FIG. 4C)) is reported as “a decrease in the proportion of PSA+/PSMA− “AR-on” CTCs; also recorded: Increase in the proportion of PSA+/PSMA− “AR-on” CTCs”. For the same compound, the “CRPC patients with ≥50% decline in the percentage of AR-on (PSA+/PSMA−) CTCs” value ([1]; within 2-5 weeks of therapy, 4 of 13 patients) was 31%, the “CRPC patients with ≥50% increase in the percentage of AR-on CTCs” value ([1]; within the first 2-5 weeks of therapy, 3 of 13 patients) was 23% and the Overall survival (metastatic CRPC) was “increases overall survival”.
With `CCNC(=O)[C@@H]1CCCN1C(=O)[C@H](CCCNC(=N)N)NC(=O)[C@H](CC(C)C)NC(=O)[C@@H](CC(C)C)NC(=O)[C@H](Cc1ccc(O)cc1)NC(=O)[C@H](CO)NC(=O)[C@H](Cc1c[nH]c2ccccc12)NC(=O)[C@H](Cc1c[nH]cn1)NC(=O)[C@@H]1CCC(=O)N1` [leuprolide] the “Change of CTC AR signaling phenotype after ADT” value [2] was “transformation of CTCs from the “AR-on” (PSA+/PSMA−) phenotype to the “AR-off” (PSA−/PSMA+) phenotype”, the “Change of CTC AR signaling phenotype after ADT” value ([2]; listed as ADT) was “transformation of the majority of CTCs from the “AR-on” to the “AR-off” phenotype within one month” and the “Presence of CTCs after initiation of ADT” value ([2]; treatment-naive metastatic prostate cancer patients with detectable CTCs) was “complete disappearance of CTCs by 3 months”.
